Source: ChEMBL document CHEMBL5649169 (ChemMedChem, 2018)

Assays:
[1] = molecular target: Transportin-1 (Homo sapiens) (UniProt Q92973)
[2] = molecular target: N-alpha-acetyltransferase 15, NatA auxiliary subunit (Homo sapiens) (UniProt Q9BXJ9)
[3] = molecular target: Tyrosine-protein kinase Lyn (Homo sapiens) (UniProt P07948)
[4] = molecular target: RNA-binding protein FUS (Homo sapiens) (UniProt P35637)
[5] = molecular target: 26S proteasome non-ATPase regulatory subunit 7 (Homo sapiens) (UniProt P51665)
[6] = molecular target: Large ribosomal subunit protein eL13 (Homo sapiens) (UniProt P26373)
[7] = molecular target: Translation initiation factor eIF2B subunit delta (Homo sapiens) (UniProt Q9UI10)
[8] = molecular target: Synaptosomal-associated protein 23 (Homo sapiens) (UniProt O00161)
[9] = molecular target: Tubulin-specific chaperone D (Homo sapiens) (UniProt Q9BTW9)
[10] = molecular target: T-complex protein 1 subunit beta (Homo sapiens) (UniProt P78371)
[11] = molecular target: Ephrin type-B receptor 4 (Homo sapiens) (UniProt P54760)
[12] = molecular target: Flap endonuclease 1 (Homo sapiens) (UniProt P39748)
[13] = molecular target: CCR4-NOT transcription complex subunit 1 (Homo sapiens) (UniProt A5YKK6)
[14] = molecular target: ATPase family AAA domain-containing protein 3A (Homo sapiens) (UniProt Q9NVI7)
[15] = molecular target: Protein RER1 (Homo sapiens) (UniProt O15258)
[16] = molecular target: Small ribosomal subunit protein uS14 (Homo sapiens) (UniProt P62273)
[17] = molecular target: Serine/threonine-protein kinase NLK (Homo sapiens) (UniProt Q9UBE8)
[18] = molecular target: Peroxiredoxin-6 (Homo sapiens) (UniProt P30041)
[19] = molecular target: Cytoskeleton-associated protein 4 (Homo sapiens) (UniProt Q07065)
[20] = molecular target: Casein kinase I isoform gamma-1 (Homo sapiens) (UniProt Q9HCP0)
[21] = molecular target: Nuclear transport factor 2 (Homo sapiens) (UniProt P61970)
[22] = molecular target: Polyadenylate-binding protein 1 (Homo sapiens) (UniProt P11940)
[23] = molecular target: Eukaryotic translation initiation factor 3 subunit B (Homo sapiens) (UniProt P55884)
[24] = molecular target: Dolichyl-diphosphooligosaccharide--protein glycosyltransferase subunit DAD1 (Homo sapiens) (UniProt P61803)
[25] = molecular target: Serine/threonine-protein kinase MRCK alpha (Homo sapiens) (UniProt Q5VT25)
[26] = molecular target: Constitutive coactivator of PPAR-gamma-like protein 1 (Homo sapiens) (UniProt Q9NZB2)
[27] = molecular target: UBX domain-containing protein 1 (Homo sapiens) (UniProt Q04323)
[28] = molecular target: Serine/threonine-protein kinase N1 (Homo sapiens) (UniProt Q16512)
[29] = species: Homo sapiens
[30] = molecular target: Neuroblast differentiation-associated protein AHNAK (Homo sapiens) (UniProt Q09666)
[31] = molecular target: Tubulin beta-5 chain (Homo sapiens) (UniProt P07437)
[32] = molecular target: Activated CDC42 kinase 1 (Homo sapiens) (UniProt Q07912)
[33] = molecular target: Serine/arginine-rich splicing factor 7 (Homo sapiens) (UniProt Q16629)
[34] = molecular target: F-actin-capping protein subunit alpha-2 (Homo sapiens) (UniProt P47755)
[35] = molecular target: GPI-anchor transamidase (Homo sapiens) (UniProt Q92643)
[36] = molecular target: Fanconi anemia group I protein (Homo sapiens) (UniProt Q9NVI1)
[37] = molecular target: Deoxycytidine kinase (Homo sapiens) (UniProt P27707)
[38] = molecular target: tRNA N6-adenosine threonylcarbamoyltransferase (Homo sapiens) (UniProt Q9NPF4)
[39] = molecular target: NADH dehydrogenase [ubiquinone] iron-sulfur protein 2, mitochondrial (Homo sapiens) (UniProt O75306)
[40] = molecular target: Peroxisomal acyl-coenzyme A oxidase 3 (Homo sapiens) (UniProt O15254)
[41] = molecular target: Nucleolysin TIAR (Homo sapiens) (UniProt Q01085)
[42] = molecular target: Eukaryotic translation elongation factor 1 epsilon-1 (Homo sapiens) (UniProt O43324)
[43] = molecular target: Tyrosine-protein kinase Tec (Homo sapiens) (UniProt P42680)
[44] = molecular target: Pre-mRNA-processing factor 6 (Homo sapiens) (UniProt O94906)
[45] = molecular target: mRNA turnover protein 4 homolog (Homo sapiens) (UniProt Q9UKD2)
[46] = molecular target: Propionyl-CoA carboxylase alpha chain, mitochondrial (Homo sapiens) (UniProt P05165)
Further: assay method not described here.

Chain of RNA-binding protein FUS (Homo sapiens) (P35637 whole entry): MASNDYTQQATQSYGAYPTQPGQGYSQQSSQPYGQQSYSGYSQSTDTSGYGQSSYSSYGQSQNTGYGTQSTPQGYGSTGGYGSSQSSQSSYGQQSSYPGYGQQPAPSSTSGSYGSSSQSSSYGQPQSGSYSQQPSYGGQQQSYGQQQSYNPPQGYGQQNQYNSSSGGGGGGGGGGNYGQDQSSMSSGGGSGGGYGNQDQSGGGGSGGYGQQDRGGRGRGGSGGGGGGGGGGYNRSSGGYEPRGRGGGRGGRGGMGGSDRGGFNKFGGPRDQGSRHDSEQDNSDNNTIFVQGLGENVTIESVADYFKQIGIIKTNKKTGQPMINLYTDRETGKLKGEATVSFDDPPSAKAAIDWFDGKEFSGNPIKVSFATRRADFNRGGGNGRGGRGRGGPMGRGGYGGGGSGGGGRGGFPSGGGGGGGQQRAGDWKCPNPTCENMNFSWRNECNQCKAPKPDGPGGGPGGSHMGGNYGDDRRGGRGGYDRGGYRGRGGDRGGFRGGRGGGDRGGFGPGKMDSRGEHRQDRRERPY
Chain of Tubulin-specific chaperone D (Homo sapiens) (Q9BTW9 whole entry): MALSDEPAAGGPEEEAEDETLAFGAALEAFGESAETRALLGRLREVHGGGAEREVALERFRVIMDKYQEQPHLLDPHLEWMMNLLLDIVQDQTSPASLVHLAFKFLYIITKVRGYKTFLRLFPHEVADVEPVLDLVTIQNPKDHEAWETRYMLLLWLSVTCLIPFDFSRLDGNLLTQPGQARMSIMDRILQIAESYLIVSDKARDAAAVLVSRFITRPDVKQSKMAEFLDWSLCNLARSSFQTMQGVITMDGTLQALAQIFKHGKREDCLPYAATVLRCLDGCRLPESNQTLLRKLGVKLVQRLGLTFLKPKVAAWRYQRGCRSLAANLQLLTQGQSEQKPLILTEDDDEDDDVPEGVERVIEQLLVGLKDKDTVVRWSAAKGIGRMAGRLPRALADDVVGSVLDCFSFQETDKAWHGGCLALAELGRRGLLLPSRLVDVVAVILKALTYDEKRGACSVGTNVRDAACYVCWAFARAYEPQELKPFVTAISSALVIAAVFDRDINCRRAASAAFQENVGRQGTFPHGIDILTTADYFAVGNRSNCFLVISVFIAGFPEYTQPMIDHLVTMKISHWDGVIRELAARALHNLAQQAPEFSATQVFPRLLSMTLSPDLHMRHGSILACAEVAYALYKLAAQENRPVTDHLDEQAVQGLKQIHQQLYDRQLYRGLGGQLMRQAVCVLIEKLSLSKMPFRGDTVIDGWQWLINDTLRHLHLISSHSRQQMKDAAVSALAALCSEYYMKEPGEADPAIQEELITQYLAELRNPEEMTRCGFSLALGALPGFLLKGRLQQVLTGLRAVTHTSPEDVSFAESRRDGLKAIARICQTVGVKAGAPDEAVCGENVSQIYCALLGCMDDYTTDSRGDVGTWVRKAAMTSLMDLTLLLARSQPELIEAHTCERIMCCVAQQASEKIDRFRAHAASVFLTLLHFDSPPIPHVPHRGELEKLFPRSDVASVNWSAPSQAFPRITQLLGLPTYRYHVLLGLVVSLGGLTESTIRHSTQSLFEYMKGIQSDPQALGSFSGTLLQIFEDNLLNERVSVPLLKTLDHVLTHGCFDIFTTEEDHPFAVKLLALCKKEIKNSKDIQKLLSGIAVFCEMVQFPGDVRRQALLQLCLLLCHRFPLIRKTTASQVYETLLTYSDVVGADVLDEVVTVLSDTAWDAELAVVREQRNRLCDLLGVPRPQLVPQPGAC
Chain of Serine/arginine-rich splicing factor 7 (Homo sapiens) (Q16629 whole entry): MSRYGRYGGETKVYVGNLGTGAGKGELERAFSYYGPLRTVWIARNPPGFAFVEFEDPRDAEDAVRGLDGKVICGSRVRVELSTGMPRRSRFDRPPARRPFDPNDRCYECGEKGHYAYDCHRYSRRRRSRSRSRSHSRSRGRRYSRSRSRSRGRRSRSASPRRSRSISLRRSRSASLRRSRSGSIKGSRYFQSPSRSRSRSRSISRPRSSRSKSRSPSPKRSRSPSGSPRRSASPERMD
Chain of Eukaryotic translation initiation factor 3 subunit B (Homo sapiens) (P55884 whole entry): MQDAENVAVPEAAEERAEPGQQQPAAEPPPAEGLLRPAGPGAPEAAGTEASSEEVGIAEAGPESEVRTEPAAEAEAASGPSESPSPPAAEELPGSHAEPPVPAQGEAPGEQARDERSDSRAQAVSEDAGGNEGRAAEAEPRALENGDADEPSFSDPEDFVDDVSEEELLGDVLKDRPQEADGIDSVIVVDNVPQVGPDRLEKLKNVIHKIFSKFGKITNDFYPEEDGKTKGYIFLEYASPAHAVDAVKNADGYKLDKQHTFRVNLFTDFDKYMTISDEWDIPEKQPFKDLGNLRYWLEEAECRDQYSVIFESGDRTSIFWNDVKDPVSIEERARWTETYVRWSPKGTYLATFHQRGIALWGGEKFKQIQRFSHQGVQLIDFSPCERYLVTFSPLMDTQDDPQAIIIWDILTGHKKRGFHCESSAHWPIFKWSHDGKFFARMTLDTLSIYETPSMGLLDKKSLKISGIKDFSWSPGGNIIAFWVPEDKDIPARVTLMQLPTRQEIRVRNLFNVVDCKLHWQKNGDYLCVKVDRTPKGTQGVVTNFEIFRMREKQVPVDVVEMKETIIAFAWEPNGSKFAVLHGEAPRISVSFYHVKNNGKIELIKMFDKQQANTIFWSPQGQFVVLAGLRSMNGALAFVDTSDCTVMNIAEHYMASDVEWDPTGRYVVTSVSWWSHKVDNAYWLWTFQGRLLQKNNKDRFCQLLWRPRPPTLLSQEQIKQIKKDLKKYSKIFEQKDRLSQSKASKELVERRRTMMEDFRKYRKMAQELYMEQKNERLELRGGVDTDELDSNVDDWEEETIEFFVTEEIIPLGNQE
Chain of Casein kinase I isoform gamma-1 (Homo sapiens) (Q9HCP0 whole entry, looked up, canonical isoform): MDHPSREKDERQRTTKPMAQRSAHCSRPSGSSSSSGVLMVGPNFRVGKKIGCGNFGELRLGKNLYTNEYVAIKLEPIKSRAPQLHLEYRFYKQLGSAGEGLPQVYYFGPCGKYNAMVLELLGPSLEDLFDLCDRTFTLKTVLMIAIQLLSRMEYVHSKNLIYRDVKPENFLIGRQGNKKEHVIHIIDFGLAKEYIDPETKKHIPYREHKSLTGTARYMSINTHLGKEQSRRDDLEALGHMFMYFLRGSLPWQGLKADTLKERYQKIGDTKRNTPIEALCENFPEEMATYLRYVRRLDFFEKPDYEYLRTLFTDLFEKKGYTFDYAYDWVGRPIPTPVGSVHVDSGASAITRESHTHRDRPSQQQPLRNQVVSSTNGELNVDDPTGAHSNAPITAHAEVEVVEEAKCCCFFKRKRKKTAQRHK
Chain of Activated CDC42 kinase 1 (Homo sapiens) (Q07912 whole entry, looked up): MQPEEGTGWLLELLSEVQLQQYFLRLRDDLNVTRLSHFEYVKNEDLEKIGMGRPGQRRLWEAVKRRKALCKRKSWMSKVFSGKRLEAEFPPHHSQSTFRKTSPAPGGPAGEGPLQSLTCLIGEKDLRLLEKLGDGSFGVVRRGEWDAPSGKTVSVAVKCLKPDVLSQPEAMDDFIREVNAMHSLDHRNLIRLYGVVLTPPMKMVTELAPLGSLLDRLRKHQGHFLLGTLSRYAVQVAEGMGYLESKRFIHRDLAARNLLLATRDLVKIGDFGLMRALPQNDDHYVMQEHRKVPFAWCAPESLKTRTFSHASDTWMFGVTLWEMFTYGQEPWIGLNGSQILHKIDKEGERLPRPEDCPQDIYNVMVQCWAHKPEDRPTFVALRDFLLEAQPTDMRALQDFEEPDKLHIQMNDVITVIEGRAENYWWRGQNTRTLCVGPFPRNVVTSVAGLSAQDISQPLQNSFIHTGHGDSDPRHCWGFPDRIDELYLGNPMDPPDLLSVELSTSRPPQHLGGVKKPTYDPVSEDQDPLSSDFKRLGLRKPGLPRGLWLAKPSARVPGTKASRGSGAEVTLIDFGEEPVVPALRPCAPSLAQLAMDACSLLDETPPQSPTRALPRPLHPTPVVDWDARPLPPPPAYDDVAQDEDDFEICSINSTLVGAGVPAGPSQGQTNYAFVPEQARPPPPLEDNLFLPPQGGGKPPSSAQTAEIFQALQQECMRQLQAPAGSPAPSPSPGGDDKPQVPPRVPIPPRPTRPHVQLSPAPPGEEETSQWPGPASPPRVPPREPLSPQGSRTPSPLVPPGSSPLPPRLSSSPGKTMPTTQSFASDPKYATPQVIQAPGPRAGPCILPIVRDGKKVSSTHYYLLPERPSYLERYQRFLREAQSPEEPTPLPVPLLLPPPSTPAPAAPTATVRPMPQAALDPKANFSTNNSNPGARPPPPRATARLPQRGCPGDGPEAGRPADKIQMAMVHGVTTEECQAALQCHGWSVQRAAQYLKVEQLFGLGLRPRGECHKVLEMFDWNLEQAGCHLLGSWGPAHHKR
Chain of tRNA N6-adenosine threonylcarbamoyltransferase (Homo sapiens) (Q9NPF4 whole entry): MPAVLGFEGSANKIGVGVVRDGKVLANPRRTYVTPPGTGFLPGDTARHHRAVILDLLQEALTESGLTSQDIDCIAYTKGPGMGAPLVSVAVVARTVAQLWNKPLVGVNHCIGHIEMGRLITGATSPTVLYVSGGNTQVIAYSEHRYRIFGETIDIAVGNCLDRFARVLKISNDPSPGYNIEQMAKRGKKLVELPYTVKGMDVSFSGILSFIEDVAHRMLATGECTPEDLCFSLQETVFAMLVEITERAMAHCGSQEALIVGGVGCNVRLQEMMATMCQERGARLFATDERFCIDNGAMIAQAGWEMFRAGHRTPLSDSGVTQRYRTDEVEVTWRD
Chain of Deoxycytidine kinase (Homo sapiens) (P27707 whole entry, looked up): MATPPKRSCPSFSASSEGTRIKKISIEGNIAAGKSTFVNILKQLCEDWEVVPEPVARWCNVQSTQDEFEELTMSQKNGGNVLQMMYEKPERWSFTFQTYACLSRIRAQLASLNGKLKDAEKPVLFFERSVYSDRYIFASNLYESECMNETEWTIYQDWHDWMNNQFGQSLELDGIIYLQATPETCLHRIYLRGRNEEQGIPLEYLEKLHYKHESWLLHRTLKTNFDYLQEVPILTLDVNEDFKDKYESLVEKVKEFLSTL
Chain of Nuclear transport factor 2 (Homo sapiens) (P61970 whole entry): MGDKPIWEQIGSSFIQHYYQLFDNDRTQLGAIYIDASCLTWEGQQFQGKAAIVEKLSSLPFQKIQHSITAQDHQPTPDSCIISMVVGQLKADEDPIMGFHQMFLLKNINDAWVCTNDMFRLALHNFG

Structure (SMILES): Cc1ccc(C(=O)Nc2cccc(C(F)(F)F)c2)cc1Nc1nc(-c2cccnc2)nc2c1cnn2C
- ED50 [1]: 3810 nM
- ED50 [2]: 11700 nM
- ED50 [3]: 1340 nM
- ED50 [4]: 17.5 nM
- ED50 [5]: 4120 nM
- ED50 [6]: 13900 nM
- ED50 [7]: 9560 nM
- ED50 [8]: 11200 nM
- ED50 [9]: 4.59 nM
- ED50 [10]: 17.8 nM
- ED50 [11]: 1400 nM
- ED50 [12]: 8960 nM
- ED50 [13]: 68.8 nM
- ED50 [14]: 8.9 nM
- ED50 [15]: 78200 nM
- ED50 [16]: 108 nM
- ED50 [17]: 1.85 nM
- ED50 [18]: 66200 nM
- ED50 [19]: 5.47 nM
- ED50 [20]: 270 nM
- ED50 [21]: 2.17 nM
- ED50 [22]: 3360 nM
- ED50 [23]: 9870 nM
- ED50 [24]: 14000 nM
- ED50 [25]: 111000 nM
- ED50 [26]: 4660 nM
- ED50 [27]: 30700 nM
- ED50 [28]: 626 nM
- ED50 [29]: 322000 nM
- ED50 [30]: 4790 nM
- ED50 [31]: 2460 nM
- ED50 [32]: 2190 nM
- ED50 [33]: 7.58 nM
- ED50 [34]: 3230 nM
- ED50 [35]: 3430 nM
- ED50 [36]: 13000 nM
- ED50 [37]: 5000 nM
- ED50 [38]: 7560 nM
- ED50 [39]: 45.3 nM
- ED50 [40]: 5.33 nM
- ED50 [41]: 934 nM
- ED50 [42]: 168 nM
- ED50 [43]: 31.1 nM
- ED50 [44]: 151000 nM
- ED50 [45]: 10800 nM
- ED50 [46]: 596 nM

Structure (SMILES): Cc1ccc(C(=O)Nc2cccc(C(F)(F)F)c2)cc1Nc1nc(-c2cccnc2)nc2nn(C)cc12
- ED50 [1]: 464 nM
- ED50 [2]: 2070 nM
- ED50 [3]: 60500 nM
- ED50 [4]: 36.6 nM
- ED50 [5]: 71.1 nM
- ED50 [6]: 19.6 nM
- ED50 [7]: 308 nM
- ED50 [8]: 416 nM
- ED50 [9]: 5.42 nM
- ED50 [10]: 53.2 nM
- ED50 [11]: 2250 nM
- ED50 [12]: 1020 nM
- ED50 [13]: 20.3 nM
- ED50 [14]: 7990 nM
- ED50 [15]: 3970 nM
- ED50 [16]: 9.33 nM
- ED50 [17]: 24.2 nM
- ED50 [18]: 61.1 nM
- ED50 [19]: 174 nM
- ED50 [20]: 3410 nM
- ED50 [21]: 419 nM
- ED50 [22]: 10700 nM
- ED50 [23]: 1.95 nM
- ED50 [24]: 32900 nM
- ED50 [25]: 29.1 nM
- ED50 [26]: 3.65 nM
- ED50 [27]: 32900 nM
- ED50 [28]: 245 nM
- ED50 [29]: 71.8 nM
- ED50 [30]: 110 nM
- ED50 [31]: 9.05 nM
- ED50 [32]: 10300 nM
- ED50 [33]: 258 nM
- ED50 [34]: 2530 nM
- ED50 [35]: 83.9 nM
- ED50 [36]: 2200 nM
- ED50 [37]: 3.09 nM
- ED50 [38]: 8470 nM
- ED50 [39]: 1240 nM
- ED50 [40]: 7130 nM
- ED50 [41]: 1.29 nM
- ED50 [42]: 502 nM
- ED50 [43]: 28.9 nM
- ED50 [44]: 2110 nM
- ED50 [45]: 311 nM
- ED50 [46]: 7070 nM
